The numbers were not newly measured in patent US9259392B2, “Cochleate compositions directed against expression of proteins” (Rutgers, The State University of New Jersey, priority 2003, dated 2016), which cites them from elsewhere.

As a reminder, the IC50 is the concentration that inhibits the measured activity by half.

The test system of series [1] is pathogenic fungi. The conditions noted are these: cited from earlier work.
In series [2] the target is Aspergillus fumigatus H^+-ATPase. As to conditions: cited from earlier work.

For the molecule `CCN1CCC(O)(C=Cc2ccc(Cl)cc2)C(C(=O)C=Cc2ccc(Cl)cc2)C1.Cl` (centres unmarked) [NC1175, 3-[3-(4-chlorophenyl)-2-propenoyl]-4-[2-(4-chlorophenyl)vinylene]-1-ethyl-4-piperidinol hydrochloride], the antifungal activity result in series [1] is recorded as “antifungal activity against a wide spectrum of pathogenic fungi”.

Regarding `[O]=[V]([OH])([OH])[OH]` [orthovanadate], the IC50 in series [2] was approximately 800 nM.
